Reference: patent US20090304654A1, “METHODS FOR ISOLATING ADIPOSE-DERIVED STEM CELLS AND THERAPEUTIC USE THEREOF” (REGENTS OF THE UNIVERSITY OF CALIFORNIA, priority 2008, published 2009)

System: RADSC-1 cells
Assay: Endothelial-inducing factors: LDL-uptake and endothelial markers of ADSC in subtraction/addition media and with FGFR inhibitor
Format: cell-based, rat
Conditions: for LDL-uptake ability on omission of the factor from EGM2: one week in subtraction EGM2; for LDL-uptake ability in EBM2 supplemented with the factor: one week in addition media
Experimental: RADSC-1 cells were grown in fully or partially supplemented EGM2 and then assayed for LDL-uptake. Each partially supplemented EGM2 is indicated by the omitted factor; for example, “−FGF” denotes EGM2 without FGF2. Experiments were repeated 3 times.
RADSC-1 cells were grown in EGM2, EBM2, or EBM2 supplemented with the indicated factor, and then assayed for LDL-uptake. Experiments were repeated 3 times.
RADSC-1 cells were grown in EGM2 or EBM2 supplemented with FGF2 and vitamin C in the presence or absence of FGFR inhibitor PD173074. The cells were then assayed for LDL-uptake. Red color indicates the presence of LDL, which was in a conjugated form with the red fluorescence dye DiI. RADSC-1 cells were also grown in VEGF/vitamin C-supplemented EBM2 for the purpose of excluding the involvement of VEGF signaling, as PD173074 is known to have a weak inhibitory effect on VEGF receptor. Experiments were repeated 3 times.
EGM2 medium is supplied by the manufacturer in the form of a basal medium (EBM2) and individual vials of supplemental factors. […] Specifically, we prepared “subtraction” EGM2 media by omitting one supplemental factor at a time.
The above experiments identified FGF2 as the only growth factor required for the induction of ADSC's LDL-uptake ability. We then tested whether FGF2 was able to induce the expression of additional endothelial characteristics. RADSC-1 cells were grown in DMEM, EGM2, or EBM2 supplemented with FGF2 and vitamin C. They were then stained for endothelial markers CD31, vWF, and eNOS, and tested for tube formation.
In the absence of PD173074 (with the addition of solvent only), cells grown in either the completely supplemented EGM2 or the FGF2/vitamin C-supplemented EBM2 acquired the LDL-uptake ability (FIG. 23).

| Molecule | LDL-uptake ability on omission of the factor from EGM2 | acquisition of LDL-uptake ability in the presence of inhibitor (cells in EGM2 or FGF2/vitamin C-supplemented EBM2) | LDL-uptake ability in EBM2 supplemented with the factor |
| --- | --- | --- | --- |
| VEGF | essentially no effect | – | – |
| heparin | essentially no effect | – | – |
| CCN(CC)CCCCNc1ncc2cc(-c3cc(OC)cc(OC)c3)c(NC(=O)NC(C)(C)C)nc2n1 [PD173074] | – | unable to do so | – |
| C[C@]12CCC(=O)C=C1CC[C@@H]1[C@@H]2[C@@H](O)C[C@@]2(C)[C@H]1CC[C@]2(O)C(=O)CO [hydrocortisone] | essentially no effect | – | – |
| O=C1O[C@H]([C@@H](O)CO)C(O)=C1O [vitamin C] | greatly diminished LDL-uptake ability | – | still somewhat effective, but at a much reduced level |
| FGF2: growth factor supplement of EGM2 | greatly diminished LDL-uptake ability | – | still effective, albeit at a reduced level |
| EGF: epidermal growth factor, supplement of EGM2 (NSDSECPLSHDGYCLHDGVCMYIEALDKYACNCVVGYIGERCQYRDLKWWELR; UniProt P01133 971-1023, looked up) | essentially no effect | – | – |
